Laboratory results taken from patent publication US7695930B2, “Method for the detection, identification and/or quantification of microoganisms with peptidase activity using phenoxazinone derivatives as enzyme substrates” (Biomerieux, priority 2003, dated 2010).
Read-outs that look alike come from different tables or passages of the source.

Columns and labels:
Conditions in all cases: 60 mg/l
[1] = system: Burkholderia cepacia 1
Procedure: (§1) 300 ml of Columbia medium were melted in a waterbath at 100° C. and autoclaved at 121° C. for 15 min. The product was then cooled to 50° C. in a waterbath.
(§2) This medium was separated into 3 flasks of 100 ml, and then, added at 50° C., as substrates, were those of Examples 4 and 6 for which the amino acid is β-alanine (respectively, β-alanine-9-amino-6-carbethoxybenzo[a]phenoxazin-5-one or β-Ala-ACAP and β-alanine-9-amino-6-chlorobenzo[a]phenoxazin-5-one or β-Ala-ACHP), solubilized in DMSO, according to the concentrations indicated in Table 5 below:
(§3) The medium was then poured into Petri dishes.
(§4) Nine microorganism strains derived from the Applicant's collection, suspended in physiological saline, were seeded onto the media prepared in point 14.1 above according to a multipoint inoculation in a proportion of 100 000 cfu/spot. The dishes were incubated at 37° C. for 48 hours. The colonies formed (one colony per strain) were examined visually after incubation for 24 and 48 hours.
(§5) The results are expressed in Table 6 hereinafter according to the rules and the nomenclature stated in paragraph 11.3 and where RP signifies pale pink.

[2] = system: Burkholderia cepacia 2
Procedure: as §1, §2, §3, §4, §5

[3] = system: Candida albicans (NCTC)
Procedure: as §1, §2, §3, §4, §5

[4] = system: Enterobacter cloacae (NCTC 11936)
Procedure: as §1, §2, §3, §4, §5

[5] = system: Enteroccus faecalis (NCTC 775)
Procedure: as §1, §2, §3, §4, §5

[6] = system: Escherichia coli (NCTC 10418)
Procedure: as §1, §2, §3, §4, §5

[7] = system: Pseudomonas aeruginosa 1
Procedure: as §1, §2, §3, §4, §5

[8] = system: Pseudomonas aeruginosa 2
Procedure: as §1, §2, §3, §4, §5

[9] = system: Pseudomonas aeruginosa 3
Procedure: as §1, §2, §3, §4, §5

For “β-alanine-9-amino-6-carbethoxybenzo[a]phenoxazin-5-one [β-Ala-ACAP]”, which growth diameter ([1]; 24 h) is on record?
Its growth diameter is 2 mm.

What about the growth diameter ([1]; 48 h) of the same substance?
Its growth diameter is 2 mm.

What about the growth diameter ([2]; 24 h) of the same substance?
Its growth diameter is 2 mm.

What about the growth diameter ([2]; 48 h) of the same substance?
The growth diameter was 2 mm.

What about the growth diameter ([3]; 24 h) of the same substance?
Its growth diameter is 2 mm.

And the growth diameter ([3]; 48 h)?
Its growth diameter is 2 mm.

And the growth diameter ([4]; 24 h)?
Its growth diameter is 3 mm.

And the growth diameter ([4]; 48 h)?
The growth diameter was 3 mm.

What about the growth diameter ([5]; 24 h) of the same substance?
Its growth diameter is 2 mm.

And the growth diameter ([5]; 48 h)?
The growth diameter was 2 mm.

And the growth diameter ([6]; 24 h)?
The growth diameter was 2 mm.

And the growth diameter ([6]; 48 h)?
The growth diameter was 3 mm.

What about the “color of the colony” value ([7]; 24 h) of the same substance?
Its value is “R”.

And the growth diameter ([7]; 24 h)?
Its growth diameter is 3 mm.

What about the “intensity of coloration, scale 0 to 4” value ([7]; 24 h) of the same substance?
The value was 1.

What about the “color of the colony” value ([7]; 48 h) of the same substance?
Its value is “R”.

And the growth diameter ([7]; 48 h)?
Its growth diameter is 3 mm.

And the “intensity of coloration, scale 0 to 4” value ([7]; 48 h)?
The value was 3.

What about the “color of the colony” value ([8]; 24 h) of the same substance?
Its value is “R”.

What about the growth diameter ([8]; 24 h) of the same substance?
Its growth diameter is 3 mm.

And the “intensity of coloration, scale 0 to 4” value ([8]; 24 h)?
Its value is 2.

And the “color of the colony” value ([8]; 48 h)?
The value was “R”.

What about the growth diameter ([8]; 48 h) of the same substance?
The growth diameter was 3 mm.

What about the “intensity of coloration, scale 0 to 4” value ([8]; 48 h) of the same substance?
The value was 2.

What about the “color of the colony” value ([9]; 24 h) of the same substance?
Its value is “R”.

What about the growth diameter ([9]; 24 h) of the same substance?
Its growth diameter is 1 mm.

And the “intensity of coloration, scale 0 to 4” value ([9]; 24 h)?
Its value is 2.

And the “color of the colony” value ([9]; 48 h)?
The value was “R”.

And the growth diameter ([9]; 48 h)?
Its growth diameter is 2 mm.

And the “intensity of coloration, scale 0 to 4” value ([9]; 48 h)?
The value was 3.

Which growth diameter ([1]; 24 h) does the source give for “β-alanine-9-amino-6-chlorobenzo[a]phenoxazin-5-one [β-Ala-ACHP]” here?
Its growth diameter is 2 mm.

What about the growth diameter ([1]; 48 h) of the same substance?
The growth diameter was 2 mm.

What about the growth diameter ([2]; 24 h) of the same substance?
The growth diameter was 2 mm.

And the growth diameter ([2]; 48 h)?
Its growth diameter is 2 mm.

And the growth diameter ([3]; 24 h)?
Its growth diameter is 2 mm.

And the growth diameter ([3]; 48 h)?
Its growth diameter is 2 mm.

What about the growth diameter ([4]; 24 h) of the same substance?
Its growth diameter is 2 mm.

And the growth diameter ([4]; 48 h)?
The growth diameter was 3 mm.

And the growth diameter ([5]; 24 h)?
Its growth diameter is 1 mm.

And the growth diameter ([5]; 48 h)?
The growth diameter was 1 mm.

And the growth diameter ([6]; 24 h)?
Its growth diameter is 2 mm.

And the growth diameter ([6]; 48 h)?
The growth diameter was 3 mm.

What about the “color of the colony” value ([7]; 24 h) of the same substance?
Its value is “R”.

What about the growth diameter ([7]; 24 h) of the same substance?
Its growth diameter is 3 mm.

And the “intensity of coloration, scale 0 to 4” value ([7]; 24 h)?
The value was 2.

What about the growth diameter ([7]; 48 h) of the same substance?
Its growth diameter is 3 mm.

And the “intensity of coloration, scale 0 to 4” value ([7]; 48 h)?
The value was 2.

And the “color of the colony” value ([8]; 24 h)?
The value was “R”.

And the growth diameter ([8]; 24 h)?
Its growth diameter is 2 mm.

What about the “intensity of coloration, scale 0 to 4” value ([8]; 24 h) of the same substance?
The value was 2.

And the growth diameter ([8]; 48 h)?
The growth diameter was 3 mm.

And the “intensity of coloration, scale 0 to 4” value ([8]; 48 h)?
The value was 2.

And the “color of the colony” value ([9]; 24 h)?
The value was “R”.

And the growth diameter ([9]; 24 h)?
Its growth diameter is 1 mm.

What about the “intensity of coloration, scale 0 to 4” value ([9]; 24 h) of the same substance?
The value was 2.

And the growth diameter ([9]; 48 h)?
Its growth diameter is 2 mm.

What about the “intensity of coloration, scale 0 to 4” value ([9]; 48 h) of the same substance?
Its value is 2.
